Reference: patent US20240298639A1 (priority 2021, published 2024)

Key:
Format in all cases: cell-based
[1] = test system: wheat scab fungi (Fusarium graminearum and Fusarium asiaticum); assay: organism not typed; conditions: for inhibition at 0.125 µg/mL / inhibition at 0.25 µg/mL / inhibition at 0.5 µg/mL: read-out: Mycelial growth inhibition rate (MGIR); for inhibition at 0.5 µg/mL: 0.5 mg/L
[2] = test system: melon Fusarium wilt pathogen (Fusarium oxysporum); assay: microbe, parasite or virus in culture; conditions: 1 mg/L; for inhibition at 1 µg/mL: Fusarium, read-out: Mycelial growth inhibition rate
[3] = test system: rice bakanae disease pathogen (Fusarium moniliforme); assay: microbe, parasite or virus in culture; conditions: 1 mg/L; for inhibition at 1 µg/mL: Fusarium verticillioides, read-out: Mycelial growth inhibition rate
[4] = test system: banana Fusarium wilt pathogen (Fusarium oxysporum); assay: microbe, parasite or virus in culture; conditions: 1 mg/L; for inhibition at 1 µg/mL: Fusarium, read-out: Mycelial growth inhibition rate

Compound | inhibition at 0.125 µg/mL ([1]; 0.125 mg/L) [%] | inhibition at 0.25 µg/mL ([1]; 0.25 mg/L) [%] | inhibition at 0.5 µg/mL [1] [%] | other results
CCOC(=O)/C(C#N)=C(\N)c1ccc(N)cc1 [Compound 1] | 65.5 ± 4.3 | 81.2 ± 6.3 | > 90 | –
CCOC(=O)/C(C#N)=C(\N)c1ccc(NC)cc1 [Compound 2] | > 90 | > 90 | > 90 | inhibition at 1 µg/mL [2]: > 90%; inhibition at 1 µg/mL [3]: > 90%; inhibition at 1 µg/mL [4]: > 90%
CCNc1ccc(/C(N)=C(\C#N)C(=O)OCC)cc1 [Compound 3] | > 90 | > 90 | > 90 | inhibition at 1 µg/mL [2]: > 90%; inhibition at 1 µg/mL [3]: > 90%; inhibition at 1 µg/mL [4]: > 90%
CCOC(=O)/C(C#N)=C(\N)c1ccc(N(C)CC)cc1 [Compound 8] | 88.3 ± 4.5 | > 90 | > 90 | –
CCOC(=O)/C(C#N)=C(\N)c1ccc(N(CC)CC)cc1 [Compound 11] | > 90 | > 90 | > 90 | inhibition at 1 µg/mL [2]: > 90%; inhibition at 1 µg/mL [3]: > 90%; inhibition at 1 µg/mL [4]: > 90%
CCOC(=O)/C(C#N)=C(\N)c1ccc(N2CCC2)cc1 [Compound 15] | 84.2 ± 4.5 | > 90 | > 90 | –
CCOC(=O)/C(C#N)=C(\N)c1ccc(N2CCCC2)cc1 [Compound 16] | 82.3 ± 2.5 | > 90 | > 90 | –
CCOC(=O)/C(C#N)=C(\N)c1ccc(N2CCCCC2)cc1 [Compound 17] | 81.4 ± 5.5 | > 90 | > 90 | –
CCN(CC)c1ccc(/C(N)=C(\C#N)C(=O)OC)cc1 [Compound 28] | 74.4 ± 3.8 | 85.3 ± 3.3 | > 90 | –
CCCOC(=O)/C(C#N)=C(\N)c1ccc(NC)cc1 [Compound 34] | 74.1 ± 2.3 | 84.9 ± 5.4 | > 90 | –
CCCOC(=O)/C(C#N)=C(\N)c1ccc(NCC)cc1 [Compound 35] | 76.6 ± 3.3 | 85.8 ± 1.8 | > 90 | –
CCCOC(=O)/C(C#N)=C(\N)c1ccc(N(C)C)cc1 [Compound 36] | 75.2 ± 3.3 | 85.4 ± 3.9 | > 90 | –
CCCOC(=O)/C(C#N)=C(\N)c1ccc(N(CC)CC)cc1 [Compound 37] | 73.9 ± 5.5 | 84.8 ± 7.1 | > 90 | –
phenamacril [reference compound] | – | – | – | Mycelial growth inhibition rate [2]: 25%; Mycelial growth inhibition rate [3]: 25%; Mycelial growth inhibition rate (MGIR) ([1]; 0.125 mg/L): 21.1 ± 2.3%; Mycelial growth inhibition rate (MGIR) ([1]; 0.25 mg/L): 36.1 ± 5.0%; Mycelial growth inhibition rate [4]: 25%
